In US10322143B2, “Inhibitors of ADAMTS4 or ADAMTS5 for use in preventing or treating cardiac remodeling and chronic heart failure” (Universitetet i Oslo, priority 2013, dated 2019):

Test system: aortic banding rats
Test: Aortic banding rat model: echocardiography and organ weights after PPS-treatment
Type: in vivo
Conditions: for Aorta / FS (fractional shortening) / Heart wt / IVSd (interventricular septal thickness at diastole) / LAD (left atrial diameter) / LV wt / LVDd (left ventricular diameter at diastole) / LVDs (left ventricular diameter at systole) / Lung wt / PWd (posterior wall thickness at diastole) / RV wt / Tissue Doppler Maximal velocity / Tissue Doppler Minimal velocity / HR (heart rate): PPS 6 mg/kg s.c. every third day, mean ± SEM; for HR (heart rate): in bpm (unit assumed)
From the text: The experimental procedures conformed to the European Convention for the Protection of Vertebrate Animals Used for Experimental and Other Scientific Purposes, and the protocols were approved by the Norwegian Council for Animal Research. Male Wistar rats weighing 160-170 g underwent AB essentially as described previously (Lunde et al. Physiol Genomics 2011. 44(2):162-72). Briefly, the ascending aorta was dissected free through a right hemithoracotomy, and ligated (3-0 silk) against a steel wire. The sham-operated rats (sham) were subjected to the same surgical procedure with a loose suture around the aorta. In all surgical procedures performed, a mixture of 67% N2O, 28% O2, and 4% isoflurane in an anaesthesia chamber was used for preoperative sedation. To maintain anaesthesia preoperatively, a mixture of 69% N2O, 29% O2, and 2% isoflurane was given by the endotracheal tube and the animals were ventilated on a respirator (Zoovent, Triumph Technical Services, Milton Keynes, UK). Buprenorphine was given as postoperative analgesia after AB.
In vivo heart function was evaluated using the Vevo2100 system (Visualsonics Inc, Canada) as previously described (Sjaastad et al. J Appl Physiol 2000; 89:1445-54). Thereafter, the heart was excised under deep anaesthesia, washed in saline and blotted dry to remove blood in the cardiac chambers. The heart chambers were separated by rapid dissection, before being snap-frozen in liquid nitrogen and stored at −70° C. until further analyses. For AB rats not receiving PPS- or vehicle treatment, selection into heart failure (ABHF) or hypertrophy (ABHT) groups was based on echocardiographic and postmortem analysis, as follows: Inclusion criteria for ABHF group were increased lung weight (>2.5 g), increased posterior wall diameter in diastole (PWDd) (>2.0 mm) and increased left atrial diameter (>5.0 mm), while criteria for inclusion in the ABHT group were increased PWDd (>2.0 mm), increased left ventricular weight (>0.75 g) and preserved lung weight (<2.0 g).
Three days after AB, rats were stratified by the gradient over the stenosis to ensure similar degree of cardiac stress. Two and two stratified rats were randomized to either 6 mg/kg of the sulfated polysaccharide sodium pentosan polysulfate (PPS) (Interfarm AS, Norway) or vehicle (0.9% NaCl) injected subcutaneously every third day. […] Six weeks after AB or sham operation, the rats were examined by echocardiography and postmortem analysis, performed by experienced investigators (IS, JMA) blinded to treatment group.

[1] = PPS-treated vs vehicle-treated AB-rats
[2] = aortic banding rats, six weeks after AB

Substance: pentosan polysulfate [PPS]
- side effects including haemorrhage (AB rats, 6 mg/kg s.c. every third day, observed at daily basis): no side effects
- lung weight compared to vehicle (PPS-treated AB-rats): tendency towards lower
- higher fractional shortening compared to vehicle-treated AB-rats [1]: 23%
- left ventricular diameter in systole as part of the diameter in vehicle-treated AB-rats [1]: three quarters
- Aorta [2]: 2.56 ± 0.03 mm
- FS (fractional shortening) [2]: 59.2 ± 1.5%
- Heart wt [2]: 1.87 ± 0.09 g
- IVSd (interventricular septal thickness at diastole) [2]: 2.11 ± 0.06 mm
- LAD (left atrial diameter) [2]: 4.18 ± 0.14 mm
- LV wt [2]: 0.95 ± 0.07 g
- LVDd (left ventricular diameter at diastole) [2]: 6.53 ± 0.13 mm
- LVDs (left ventricular diameter at systole) [2]: 2.67 ± 0.12 mm
- Lung wt [2]: 1.64 ± 0.08 g
- PWd (posterior wall thickness at diastole) [2]: 2.13 ± 0.06 mm
- RV wt [2]: 0.18 ± 0.01 g
- Tissue Doppler Maximal velocity [2]: 50.70 ± 2.94
- Tissue Doppler Minimal velocity [2]: 59.06 ± 3.26
- HR (heart rate) [2]: 420 ± 6
- Aorta (sham-operated rats, six weeks): 2.63 ± 0.04 mm
- FS (fractional shortening) (sham-operated rats, six weeks): 53.6 ± 5.8%
- Heart wt (sham-operated rats, six weeks): 1.19 ± 0.11 g
- IVSd (interventricular septal thickness at diastole) (sham-operated rats, six weeks): 1.56 ± 0.04 mm
- LAD (left atrial diameter) (sham-operated rats, six weeks): 3.68 ± 0.14 mm
- LV wt (sham-operated rats, six weeks): 0.70 ± 0.03 g
- LVDd (left ventricular diameter at diastole) (sham-operated rats, six weeks): 6.89 ± 0.10 mm
- LVDs (left ventricular diameter at systole) (sham-operated rats, six weeks): 3.20 ± 0.41 mm
- Lung wt (sham-operated rats, six weeks): 1.41 ± 0.03 g
- PWd (posterior wall thickness at diastole) (sham-operated rats, six weeks): 1.68 ± 0.08 mm
- RV wt (sham-operated rats, six weeks): 0.17 ± 0.01 g
- Tissue Doppler Maximal velocity (sham-operated rats, six weeks): 72.9 ± 8.6
- Tissue Doppler Minimal velocity (sham-operated rats, six weeks): 82.4 ± 6.1
- HR (heart rate) (sham-operated rats, six weeks): 412 ± 11
